Row | melting point | SMILES
1 | 149 to 151 °C | c1cc(-c2cnn3cc(-c4ccc(OCCN5CCOCC5)cc4)cnc23)cs1 [Example 3, 3-(3-thienyl)-6-(4-(2-(4-morpholinyl)ethoxy)phenyl)pyrazolo(1,5-A)pyrimidine]
2 | 141 to 143 °C | c1cc(-c2cnn3cc(-c4ccc(OCCN5CCCCC5)cc4)cnc23)cs1 [Example 4, 6-[4-(2-piperidin-1-yl-ethoxy)-phenyl]-3-thiophen-3-yl-pyrazolo[1,5-a]pyrimidine]

Reference: patent publication US20020041880A1, “Method of treating cancer” (priority 2000, published 2002)
